One assay deals with CDK8/Cyclin C (Homo sapiens, UniProt P49336). In words: Inhibition of recombinant human full-length GST/His-fused CDK8/CycC expressed in Sf9 insect cells using RBER-IRStide as substrate after 1 hr in presence of [gamma33P-ATP] by microbeta scintillation counting method.
A further assay deals with HCT-116. Nature of the assay: Growth inhibition of CDK8 over-expressing human HCT116 cells by MTT assay. It counts as functional. Background: Tetrazolium assays rely on reduction of a dye to a coloured formazan, in cell work by metabolically active cells.
A further assay concerns COLO 205. Nature of the assay: Growth inhibition of CDK8 over-expressing human COLO205 cells by MTT assay. It counts as functional.
Another assay concerns HT-29. Nature of the assay: Growth inhibition of CDK8 over-expressing human HT-29 cells by MTT assay. It counts as functional.
For assay [1], the target named is Cyclin-dependent kinase 8 (Homo sapiens, UniProt P49336). In words: Binding affinity to wild-type partial length human CDK8 (M1 to T360 residues) expressed in bacterial expression system by Kinomescan assay.
Assay [2] addresses T1, Cyclin-dependent kinase 19 (Homo sapiens, UniProt Q9BWU1). In words: Binding affinity to wild-type partial length human CDK11 (M1 to N360 residues) expressed in bacterial expression system by Kinomescan assay.
Assay [3] addresses Rho-associated protein kinase 1 (Homo sapiens, UniProt Q13464). Nature of the assay: Binding affinity to wild-type partial length human ROCK1 (M1 to R415 residues) expressed in mammalian expression system by Kinomescan assay.
For assay [4], the target named is Rho-associated protein kinase 2 (Homo sapiens, UniProt O75116). In words: Binding affinity to wild-type partial length human ROCK2 (M1 to T431 residues) expressed in mammalian expression system by Kinomescan assay.
The target in assay [5] is cAMP-dependent protein kinase catalytic subunit alpha (Homo sapiens, UniProt P17612). Nature of the assay: Binding affinity to wild-type partial length human PKACalpha (G10 to F351 residues) expressed in bacterial expression system by Kinomescan assay.
In the next assay the test system is HUVEC. Nature of the assay: Antiproliferative activity against VEGF-stimulated HUVEC. It counts as functional, cell-based. The following applies: Homo sapiens.
A further assay has as its system NHDF. Nature of the assay: Cytotoxicity against NHDF cells. It counts as cell-based. The following applies: Homo sapiens.
The nature of assay [6]: Selectivity index, ratio of IC50 for NHDF cells to IC50 for VEGF-stimulated HUVEC. On the set-up: species or system Homo sapiens.
Assay [7] deals with T1, Cyclin-dependent kinase 19. In words: Inhibition of wild-type partial length human CDK11 (M1 to N360 residues) expressed in bacterial expression system at 300 nM by Kinomescan assay.
The target of assay [8] is T2, Serine/threonine-protein kinase haspin (Homo sapiens) (UniProt Q8TF76).
T2 sequence (whole entry): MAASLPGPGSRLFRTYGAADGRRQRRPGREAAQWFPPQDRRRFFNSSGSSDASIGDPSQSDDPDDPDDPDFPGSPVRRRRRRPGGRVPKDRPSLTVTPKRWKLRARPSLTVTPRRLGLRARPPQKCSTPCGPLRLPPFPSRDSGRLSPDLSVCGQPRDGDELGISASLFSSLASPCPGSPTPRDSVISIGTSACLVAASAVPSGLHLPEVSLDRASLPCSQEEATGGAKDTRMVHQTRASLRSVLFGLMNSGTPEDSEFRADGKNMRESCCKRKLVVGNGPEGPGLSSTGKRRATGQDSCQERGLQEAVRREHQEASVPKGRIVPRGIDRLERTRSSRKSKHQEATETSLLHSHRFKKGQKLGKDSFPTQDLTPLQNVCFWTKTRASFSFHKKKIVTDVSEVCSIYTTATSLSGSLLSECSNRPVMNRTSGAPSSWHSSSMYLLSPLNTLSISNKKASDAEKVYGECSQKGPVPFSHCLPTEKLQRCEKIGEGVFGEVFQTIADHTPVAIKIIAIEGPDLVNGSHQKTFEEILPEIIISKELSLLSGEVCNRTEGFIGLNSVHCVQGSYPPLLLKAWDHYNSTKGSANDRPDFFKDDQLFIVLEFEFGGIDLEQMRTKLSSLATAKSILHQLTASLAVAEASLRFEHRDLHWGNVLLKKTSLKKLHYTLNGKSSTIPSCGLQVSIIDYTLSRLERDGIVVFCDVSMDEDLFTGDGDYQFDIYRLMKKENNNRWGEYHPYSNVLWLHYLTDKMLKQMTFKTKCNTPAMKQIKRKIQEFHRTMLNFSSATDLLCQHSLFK
In words: Inhibition of wild-type human partial length HASPIN (I452 to K798 residues) expressed in mammalian expression system at 300 nM by Kinomescan method relative to control.

Assay [9] deals with Cyclin-C/Cyclin-dependent kinase 19 (Homo sapiens, UniProt Q9BWU1). Nature of the assay: Inhibition of recombinant human GST/His-tagged CDK11 (1 to 502 residues)/cyclinC (1 to 283 residues) catalytic domain expressed in insect cells by Lantha screen eu binding assay.

From ChEMBL document CHEMBL4411304, “CDK8 as a therapeutic target for cancers and recent developments in discovery of CDK8 inhibitors” (Eur J Med Chem, 2019) come the findings set out here.

Chain of CDK8/Cyclin C (P49336 whole entry, the tested form may be a part): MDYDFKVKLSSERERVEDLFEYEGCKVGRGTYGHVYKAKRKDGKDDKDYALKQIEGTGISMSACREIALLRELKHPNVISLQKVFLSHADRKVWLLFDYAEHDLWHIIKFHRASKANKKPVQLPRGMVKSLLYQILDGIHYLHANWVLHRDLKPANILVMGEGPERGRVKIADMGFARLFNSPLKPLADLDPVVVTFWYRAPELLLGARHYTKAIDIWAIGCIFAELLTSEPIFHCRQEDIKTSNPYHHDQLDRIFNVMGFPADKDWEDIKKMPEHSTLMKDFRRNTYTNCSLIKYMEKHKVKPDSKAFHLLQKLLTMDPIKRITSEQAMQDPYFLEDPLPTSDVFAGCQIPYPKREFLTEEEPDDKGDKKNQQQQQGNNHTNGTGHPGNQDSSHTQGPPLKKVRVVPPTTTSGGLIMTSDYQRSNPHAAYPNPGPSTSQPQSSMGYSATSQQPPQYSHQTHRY
Chain of CDK8/Cyclin C (P24863 whole entry, further chain, the tested form may be a part): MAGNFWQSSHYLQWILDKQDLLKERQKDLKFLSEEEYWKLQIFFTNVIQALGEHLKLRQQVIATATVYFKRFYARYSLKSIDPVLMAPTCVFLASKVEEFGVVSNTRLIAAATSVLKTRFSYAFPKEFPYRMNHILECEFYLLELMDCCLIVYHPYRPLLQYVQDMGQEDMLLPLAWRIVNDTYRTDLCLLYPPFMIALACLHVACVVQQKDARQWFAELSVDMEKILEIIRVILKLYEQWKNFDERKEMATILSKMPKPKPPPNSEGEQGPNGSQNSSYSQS
T1 sequence (Q9BWU1 whole entry, the tested form may be a part): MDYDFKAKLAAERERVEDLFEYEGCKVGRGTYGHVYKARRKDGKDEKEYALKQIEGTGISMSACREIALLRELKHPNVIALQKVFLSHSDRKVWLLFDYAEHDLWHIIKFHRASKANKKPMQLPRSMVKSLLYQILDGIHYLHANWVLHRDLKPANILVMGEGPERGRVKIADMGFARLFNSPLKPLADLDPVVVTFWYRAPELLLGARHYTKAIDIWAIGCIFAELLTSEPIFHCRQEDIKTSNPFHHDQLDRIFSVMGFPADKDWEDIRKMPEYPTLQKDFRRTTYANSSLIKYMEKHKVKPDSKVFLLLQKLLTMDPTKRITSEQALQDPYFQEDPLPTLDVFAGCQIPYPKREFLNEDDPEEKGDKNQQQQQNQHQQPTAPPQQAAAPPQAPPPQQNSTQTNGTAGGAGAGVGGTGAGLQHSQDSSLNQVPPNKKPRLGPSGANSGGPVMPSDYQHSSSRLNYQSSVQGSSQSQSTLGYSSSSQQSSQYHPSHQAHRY
Chain of Cyclin-dependent kinase 8 (P49336 whole entry, the tested form may be a part): as the sequence (P49336 whole entry, the tested form may be a part) above
Chain of Cyclin-C/Cyclin-dependent kinase 19 (Q9BWU1 whole entry, the tested form may be a part): as the sequence (Q9BWU1 whole entry, the tested form may be a part) above
Chain of Cyclin-C/Cyclin-dependent kinase 19 (P24863 whole entry, further chain, the tested form may be a part): as the sequence (P24863 whole entry, further chain, the tested form may be a part) above
Chain of Rho-associated protein kinase 2 (O75116 whole entry, the tested form may be a part): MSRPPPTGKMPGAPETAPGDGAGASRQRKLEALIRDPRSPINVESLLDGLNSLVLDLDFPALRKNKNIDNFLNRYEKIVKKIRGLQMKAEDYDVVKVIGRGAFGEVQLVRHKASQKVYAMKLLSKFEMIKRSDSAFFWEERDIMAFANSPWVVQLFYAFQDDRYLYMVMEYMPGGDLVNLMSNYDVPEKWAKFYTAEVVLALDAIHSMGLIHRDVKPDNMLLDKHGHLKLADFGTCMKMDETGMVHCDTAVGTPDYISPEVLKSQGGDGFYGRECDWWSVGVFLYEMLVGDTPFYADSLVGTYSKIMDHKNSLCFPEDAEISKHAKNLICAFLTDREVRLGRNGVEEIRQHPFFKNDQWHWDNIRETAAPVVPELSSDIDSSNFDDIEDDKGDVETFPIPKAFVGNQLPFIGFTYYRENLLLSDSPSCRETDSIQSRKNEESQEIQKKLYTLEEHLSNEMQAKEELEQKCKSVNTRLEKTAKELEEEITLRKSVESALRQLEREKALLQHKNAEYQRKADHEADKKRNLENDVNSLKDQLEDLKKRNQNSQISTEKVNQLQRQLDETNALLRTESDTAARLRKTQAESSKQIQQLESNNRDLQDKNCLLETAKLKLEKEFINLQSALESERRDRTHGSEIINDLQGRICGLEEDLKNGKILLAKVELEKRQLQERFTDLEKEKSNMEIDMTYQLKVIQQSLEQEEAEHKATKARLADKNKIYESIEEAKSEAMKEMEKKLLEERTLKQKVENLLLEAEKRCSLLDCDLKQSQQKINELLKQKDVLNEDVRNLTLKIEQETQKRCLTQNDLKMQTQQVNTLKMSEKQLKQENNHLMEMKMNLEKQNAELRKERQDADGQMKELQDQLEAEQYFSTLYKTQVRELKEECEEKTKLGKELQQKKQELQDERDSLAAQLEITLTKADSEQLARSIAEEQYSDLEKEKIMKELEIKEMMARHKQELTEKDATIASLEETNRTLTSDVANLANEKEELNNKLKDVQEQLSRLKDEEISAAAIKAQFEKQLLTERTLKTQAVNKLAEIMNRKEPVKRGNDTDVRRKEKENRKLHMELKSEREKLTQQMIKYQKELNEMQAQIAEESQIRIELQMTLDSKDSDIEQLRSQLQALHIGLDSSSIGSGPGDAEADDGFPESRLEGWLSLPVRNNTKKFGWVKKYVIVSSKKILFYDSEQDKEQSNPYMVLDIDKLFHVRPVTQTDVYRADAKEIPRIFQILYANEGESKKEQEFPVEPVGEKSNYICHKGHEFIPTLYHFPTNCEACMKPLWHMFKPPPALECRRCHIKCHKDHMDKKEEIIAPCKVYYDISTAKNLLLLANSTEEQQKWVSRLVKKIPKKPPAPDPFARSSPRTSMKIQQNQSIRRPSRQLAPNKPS
Chain of Rho-associated protein kinase 1 (Q13464 whole entry, the tested form may be a part): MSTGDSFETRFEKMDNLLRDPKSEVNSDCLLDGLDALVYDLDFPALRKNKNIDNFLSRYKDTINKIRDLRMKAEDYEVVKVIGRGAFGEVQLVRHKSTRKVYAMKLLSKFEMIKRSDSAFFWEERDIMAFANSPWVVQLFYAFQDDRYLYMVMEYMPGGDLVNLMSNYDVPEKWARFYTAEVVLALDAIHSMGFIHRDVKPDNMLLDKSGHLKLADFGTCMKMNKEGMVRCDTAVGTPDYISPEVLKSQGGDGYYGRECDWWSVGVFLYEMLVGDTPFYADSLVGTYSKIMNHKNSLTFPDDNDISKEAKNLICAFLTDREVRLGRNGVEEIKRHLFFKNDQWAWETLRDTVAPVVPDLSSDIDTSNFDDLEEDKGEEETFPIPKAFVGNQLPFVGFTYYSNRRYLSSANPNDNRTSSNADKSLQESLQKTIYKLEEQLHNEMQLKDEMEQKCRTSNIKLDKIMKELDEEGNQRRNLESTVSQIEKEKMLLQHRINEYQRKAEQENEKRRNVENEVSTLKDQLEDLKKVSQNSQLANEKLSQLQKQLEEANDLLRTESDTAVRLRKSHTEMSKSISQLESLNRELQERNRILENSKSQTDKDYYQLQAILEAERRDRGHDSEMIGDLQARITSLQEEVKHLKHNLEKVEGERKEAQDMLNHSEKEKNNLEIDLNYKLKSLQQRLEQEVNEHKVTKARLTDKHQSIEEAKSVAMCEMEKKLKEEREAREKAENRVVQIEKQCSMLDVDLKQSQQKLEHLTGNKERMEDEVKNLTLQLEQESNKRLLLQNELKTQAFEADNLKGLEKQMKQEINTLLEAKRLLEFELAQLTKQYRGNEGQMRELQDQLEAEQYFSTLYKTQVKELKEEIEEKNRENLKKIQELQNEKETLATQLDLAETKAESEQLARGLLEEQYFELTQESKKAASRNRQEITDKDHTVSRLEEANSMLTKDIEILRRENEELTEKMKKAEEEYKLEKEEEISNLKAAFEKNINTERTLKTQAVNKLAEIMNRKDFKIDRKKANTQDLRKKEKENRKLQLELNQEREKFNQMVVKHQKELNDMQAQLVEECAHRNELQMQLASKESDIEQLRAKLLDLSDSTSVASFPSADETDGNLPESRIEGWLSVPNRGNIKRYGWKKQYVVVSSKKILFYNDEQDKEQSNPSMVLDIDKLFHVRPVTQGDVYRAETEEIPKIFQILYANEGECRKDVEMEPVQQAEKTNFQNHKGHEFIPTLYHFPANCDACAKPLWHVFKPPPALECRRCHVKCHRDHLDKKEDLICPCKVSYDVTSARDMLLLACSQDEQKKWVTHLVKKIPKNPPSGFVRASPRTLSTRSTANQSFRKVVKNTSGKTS

By IC50 is commonly meant the concentration needed to halve the response being measured. The GI50 is the concentration that inhibits growth by half. A lower GI50 goes with more potent growth inhibition. Take `Cc1ccc(NC(=O)Nc2nnc(-c3cccc(F)c3)s2)cc1C`: the 50% inhibitory concentration (IC50) on CDK8/Cyclin C is 47 nM. For the same compound, the GI50 in the assay on HCT-116, in the assay on COLO 205 and in the assay on HT-29 was 6.43 to 11.3 µM throughout.
By Kd is commonly meant the equilibrium constant for the complex coming apart. Lower therefore signals a tighter complex. For `N#Cc1ccc2ncnc(NCCc3ccccc3)c2c1`, the Kd in [1] was 830 nM; in assay [2], 310 nM.
For `CN(C)[C@H]1C[C@@]23CC[C@@]4(O2)C(=CC[C@]2(C)[C@@H](c5ccc6ccncc6c5)CC[C@H]24)C=C3[C@@H](O)[C@@H]1O`, the Kd in [1] was found to be 17 nM; in assay [2] it was 10 nM; in assay [3], 250 nM; in assay [4], 220 nM; in assay [5], 3.5 µM. In addition, the IC50 in the assay with HUVEC came to 1.8 nM; with NHDF it was 6 µM. The “Ratio IC50” value in assay [6] worked out at 3300.
One may read the inhibition as how much of the control response was suppressed. High values mean a strong effect, low ones a weak effect. As for `Cc1ncccc1Oc1sc(C(N)=O)c2c1-c1c(cnn1C)CC2`, the inhibition in assay [7] and in assay [8] was 99% in each case.
In the case of `Fc1ccc2nccc(Nc3ccccc3F)c2c1`, on CDK8/Cyclin C, the IC50 was found to be 386 nM. In addition, the concentration for 50% growth inhibition (GI50) in the assay on HCT-116, in the assay with COLO 205 and with HT-29 was 6.43 to 11.3 µM each time.
Regarding `Cc1ccc(NC(=O)Nc2ccc(Cc3ccncc3)cc2)cc1C`, the concentration for half-maximal inhibition (IC50) on CDK8/Cyclin C turned out to be 18 nM. In addition, the 50% growth inhibitory concentration (GI50) in the assay on HCT-116, with COLO 205 and in the assay with HT-29 was 6.43 to 11.3 µM each time.
Regarding `CC1CCc2nc(N)c(C#N)c(-c3cccnc3)c2C1` (stereo unspecified), in assay [9], the IC50 was more than 30 µM.
In turn, `O=C(/C=C/c1cnccc1-c1ccc(F)cc1)Nc1ccc(CCc2nnco2)cc1` showed an inhibition in assay [7] of 94%.
